Source: patent US6162810A, “Inadone and tetralone compounds for inhibiting cell proliferation” (The Regents of the University of California, priority 1998, dated 2000)
“Also recorded” adds a separate entry of the source.

Columns and labels:
human cancer cell lines = experiment: Hollow fiber assay, in vivo growth inhibitory activity; set-up: species or system human cells in mice
Method: To screen the compounds of the invention for growth inhibitory activity, a hollow fiber assay test was performed according to the protocol established by the National Cancer Institute's Developmental Therapeutics Program.
Briefly, according to the National Cancer Institute, the hollow fiber assay is performed as follows:
For these assays, human tumor cells are cultivated in polyvinylidene fluoride (PVDF) hollow fibers, and a sample of each cell line is implanted into each of two physiologic compartments (intraperitoneal and subcutaneous) in mice. Each test mouse receives a total of 6 fibers (3 intraperitoneally and 3 subcutaneously) representing 3 distinct cancer cell lines. Three mice are treated with potential antitumor compounds at each of 2 test doses by the intraperitoneal route using a QD×4 treatment schedule. Vehicle controls consist of 6 mice receiving the compound diluent only. The fiber cultures are collected on the day following the last day of treatment. To assess anticancer effects, viable cell mass is determined for each of the cell lines using a formazan dye (MTT) conversion assay. From this, the % T/C can be calculated using the average optical density of the compound treated samples divided by the average optical density of the vehicle controls. In addition, the net increase in cell mass can be determined for each sample as a sample of fiber cultures are assessed for viable cell mass on the day of implantation into mice. Thus, the cytostatic and cytocidal capacities of the test compound can be assessed.
This represents a total of 4 experiments since each experiment contains 3 cell lines. The data are reported as % T/C for each of the 2 compound doses against each of the cell lines with separate values calculated for the intraperitoneal and subcutaneous samples.
Compounds are selected for further in vivo testing in standard subcutaneous xenograft models on the basis of several hollow fiber assay criteria. […] The intraperitoneal and subcutaneous samples are scored separately so that criteria (1) and (2) can be evaluated. […]

MCF-7 = experiment: Growth inhibition of MCF-7 (wild type); format: cell-based; details: Homo sapiens, MCF7, ±1 SD, n>5
MCF-7/ADR = experiment: Growth inhibition of MCF-7/ADR (MDR); format: cell-based; details: Homo sapiens, NCI/ADR-RES, ±1 SD, n>5
MES-SA = experiment: Growth inhibition of MES-SA (wild type); format: cell-based; details: Homo sapiens, ±1 SD, n>5
MES-SA/DX5 = experiment: Growth inhibition of MES-SA/DX5 (MDR); format: cell-based; details: Homo sapiens, ±1 SD, n>5
MDA-MB-321 = experiment: Growth inhibition of MDA-MB-321 (wild type); format: cell-based; details: Homo sapiens, ±1 SD, n>5
MDA3-1/gp170 = experiment: Growth inhibition of MDA3-1/gp170 (MDR); format: cell-based; details: Homo sapiens, MDR1, ±1 SD, n>5
HL-60 = experiment: Growth inhibition of HL-60 (wild type); format: cell-based; details: Homo sapiens, ±1 SD, n>5
HL-60/ADR = experiment: Growth inhibition of HL-60/ADR (MDR); format: cell-based; details: Homo sapiens, HL60/ADR, ±1 SD, n>5
CEM = experiment: Growth inhibition of CEM (wild type); format: cell-based; details: Homo sapiens, CCRF-CEM, ±1 SD, n>5
CEM/VLB100 = experiment: Growth inhibition of CEM/VLB100 (MDR); format: cell-based; details: Homo sapiens, ±1 SD, n>5
KB-3-1 = experiment: Growth inhibition of KB-3-1 (wild type); format: cell-based; details: Homo sapiens, ±1 SD, n>5
KB-GRC-1 = experiment: Growth inhibition of KB-GRC-1 (MDR); format: cell-based; details: Homo sapiens, MDR1, ±1 SD, n>5
MV522 = experiment: Growth inhibition of MV522 (wild type); format: cell-based; details: Homo sapiens, ±1 SD, n>5
MV522/Q6 = experiment: Growth inhibition of MV522/Q6 (MDR); format: cell-based; details: Homo sapiens, ±1 SD, n>5
[1] = tested on: HL-60/ADR and MDF-7/ADR cells; experiment: MTT assay, visual comparison of cells with and without MDR (FIGS. 1 and 2); format: cell-based, human; details: 3 days
KB-GRC-1 and MV522/Q6 = experiment: MTT proliferation assay of mdr1 overexpressing transfectomas; format: cell-based, human; details: 72 h
MCF-7/ADR cells = experiment: Cell death of stationary phase MCF-7/ADR cells (FACS); format: cell-based, human; details: noncycling MCF-7/ADR cells
MCF-7 wild type cells = experiment: Cell death of stationary phase MCF-7 wild type cells (FACS); format: cell-based, human; details: MCF-7 wild type (parental) cells
[2] = tested on: normal peripheral blood lymphocytes; experiment: Viability of normal peripheral blood lymphocytes; format: cell-based; details: as much as 1000-fold higher concentrations, 72 hours
HL-60/ADR cells = experiment: Apoptosis of HL-60/ADR cells (FACS); format: cell-based, human
Method: FACS analysis was performed to determine the influence of the TB compounds of the invention on growth cycling of cells (the analysis was performed on harvested cells, fixed in ice-cold 70% ethanol solution, then treated with 100 μg/ml of RNAse A and stained with 50 μg/ml propidium iodide for 1 h at 37° C. DNA content of the cells was analyzed by flow cytometry (Becton Dickinson FACScalibur), and the cell cycle distribution was calculated with the program ModFit LT 2.0 (Verity Software)).
First, the stage at which the TB compounds of the invention arrest growth of HL-60 and HL-60/ADR cells was determined by FACS analysis and caspase-3 activation as described above.

[3] = tested on: caspase-3 in HL-60/ADR cells; experiment: Caspase-3 activation in HL-60/ADR cells; format: cell-based, human; details: 10 nM
caspase-3 in HL-60 cells = experiment: Caspase-3 activation in HL-60 cells; format: cell-based, human
[4] = tested on: caspase-3 in MCF-7/ADR cells; experiment: Caspase-3 activation in noncycling MCF-7/ADR cells; format: cell-based, human
Method: Briefly, cell extracts were prepared from 5×10^6 cells in 100 μl of a lysis buffer (25 mM TrisHCl, pH 7.5, 150 mM KCl, 5 mM EDNA, 1% Nonidet P-40, 0.5% sodium deoxycholate, and 0.1% SDS) and maintained on ice for 10 min, followed by centrifugation at 14,000×g for 5 min at 4° C. The resulting supernatants were collected and frozen at -80° C. or used immediately. Lysates (20 μl, 5-10 μg of total protein) were mixed with 30 μl of assay buffer (50 mM PIPES, 50 mM KC, 5 mM EGTA, 2 mM MgCl2, 1 mM dithiothreitol (DTT), and 0.1 phenylmethanesulfonyl fluoride (PMSF)), containing 100 μM of Z-DEVD-AFC. Caspase-3-like protease activity was measured at 37° C. using a spectrofluorometric plate reader (Perkin-Elmer, LS50B) in the kinetic mode with excitation and emission wavelengths of 400 and 505 nm, respectively. Activity was measured by the release of […] from the synthetic substrate Z-DEVD-AFC (Biomol, Plymouth Meeting, Pa.).

tubulin [5] = experiment: Inhibition of tubulin assembly; format: biochemical, bovine; details: 10 μM tubulin, 20 min incubation, 30° C.; read-out: GI50 inhibitory concentration (tubulin assembly)
Method: (§1) To evaluate the effects of the TB compounds of the invention on tubulin, bovine brain tubulin (2.2 mg/ml) was incubated in PEM80 (80 mM K-PIPES, 1 mM MgCl2, 1 mM EGTA) containing 10% glycerol and 2 mM GTP for 30 minutes at 37° C. in the presence or absence of 20 μg/ml nocodazole, 1 mM paclitaxel, or TB compound no. IK-178 at various concentrations. Tubulin polymer was resolved from monomer by sedimentation through a cushion of 60% glycerol in PEM80 at 70,000 rpm for 30 min at 37° C. in a Beckman TLA100 rotor. A fraction of the supernatant was removed for analysis, the cushion washed and then aspirated, and the pellet resuspended in SDS-PAGE sample buffer. Equal proportions of the supernatant and the pellet were then resolved by SDS-PAGE and tubulin visualized by staining with Coomassie blue.
(§2) The quantitative assessment of drug inhibition of tubulin polymerization and evaluation of inhibition of [^3 H]colchicine binding to tubulin were then performed. […] Samples were placed on ice and GTP (0.4 mM) was added. Reaction mixtures were transferred to 0° C. cuvettes in Gilford 250 spectrophotometers, baselines were establishes/d, and the temperature was jumped to 30° C. with electronic temperature controllers (about 60 sec). The IC^50 was defined as the drug concentration required to inhibit extent of assembly after a 20 min incubation. […]

[6] = tested on: tubulin (colchicine-binding site); experiment: Inhibition of [3H]colchicine binding to tubulin; set-up: species or system bovine; details: 5 μM compound, 5 μM [3H]colchicine, 1 μM tubulin, n=4
Method: as §1, §2

tubulin [7] = experiment: Inhibition of [3H]vinblastine binding to tubulin; set-up: species or system bovine; details: single experiment
Method: The TB compounds of the invention (as represented by TB compound IK-178), are nearly as potent as the strong tubulin assembly inhibitor, combretastatin A-4 (CS-A4). In particular, the GI^50 inhibitory concentration of CS-A4 was 1.2±0.03 μM (n=4), while that of TB compound IK-178 was 1.7±0.1 μM (n=3).

COc1cc2c(c(N)c1OC)C(=O)/C(=C\c1cc(C)c(O)c(C)c1)C2 [IK-178]
TOTAL SCORE (IP + SC) (human cancer cell lines; IP + SC): 24 | IP SCORE (human cancer cell lines; intraperitoneal fibers, intraperitoneal treatment QD×4): 18 | SC SCORE (human cancer cell lines; subcutaneous fibers, intraperitoneal treatment QD×4): 6 | GI50 (MCF-7): 20 ± 5 nM | GI50 (MCF-7/ADR): 4 ± 1 nM | GI50 (MES-SA): 85 ± 6 nM | GI50 (MES-SA/DX5): 12 ± 3 nM | GI50 (MDA-MB-321): 10 ± 3 nM | GI50 (MDA3-1/gp170): 25 ± 2 nM | GI50 (HL-60): 40 ± 3 nM | GI50 (HL-60/ADR): 2 ± 0.2 nM | GI50 (CEM): 12 ± 2 nM | GI50 (CEM/VLB100): 20 ± 1 nM | GI50 (KB-3-1): 7 ± 2 nM | GI50 (KB-GRC-1): 7 ± 3 nM | GI50 (MV522): 13 ± 3 nM | GI50 (MV522/Q6): 8 ± 2 nM | sensitivity with acquisition of MDR [1]: retained, and even enhanced | sensitivity of transfectomas overexpressing mdr1 (KB-GRC-1 and MV522/Q6): retained complete sensitivity | cell death / apoptosis (MCF-7/ADR cells): appearance of an apoptotic sub-G0 /G1 peak | cell death / apoptosis (MCF-7/ADR cells; listed as indanocine): die following treatment | cell death / apoptosis (MCF-7 wild type cells): growth-arrested but did not show any apoptotic features | loss of viability [2]: no loss of viability | apoptosis (HL-60/ADR cells): became apoptotic; also recorded: did induce | time of maximum caspase-3 activity [3]: 24 h | caspase-3 activity ([3]; compared with untreated cells): time-dependent increase in caspase-3 activity | caspase-3 activity (caspase-3 in HL-60 cells; HL-60 cells): only a slight increase | caspase-3 activity relative to the level in the multidrug resistant cells (caspase-3 in HL-60 cells; HL-60 wild type vs HL-60/ADR): about a quarter | activation of caspase-3 [4]: activation of caspase-3 | GI50 (tubulin [5]): 1700 ± 100 nM | inhibition of [3H]colchicine binding [6]: 95±2% | inhibition of [3H]vinblastine binding to tubulin (tubulin [7]): Neither agent inhibited
